Key:
Sox17+/Oct4− cells = assay: Flow cytometry for Sox17 and Oct4 at S1C after amino acid supplementation in S1 of Protocol 2; type: cell-based; conditions: supplementation in S1 to final 200 μM aspartate, 300 μM glycine, 585 μM serine, Protocol 2, 0.3 L scale
Protocol: (§1) To determine whether supplementation of amino acids identified in Example 1 altered cellular differentiation outcomes, the following experiments were conducted. […] A control condition following Protocol 2 only was also performed.
The amino acid supplemented S1 base media were utilized for each S1 feed in a Protocol 2 differentiation at 0.3 L scale, alongside a control. At S1C, samples of cells were collected, stained with Sox17 and Oct4 and analyzed by flow cytometry.

PDX1+/NKX6.1− cells = assay: Flow cytometry for NKX6.1 and PDX1 at S3C after amino acid supplementation in S1; type: cell-based; conditions: supplementation in S1 to final 200 μM aspartate, 300 μM glycine, 585 μM serine
Protocol: as §1
At S3C, samples of the cells that were supplemented with different amino acids during S1C were collected and stained with NKX6.1 and PDX1 and analyzed using flow cytometry. […] In the control, 89.3% of cells were in PDX1+/NKX6.1-, while in aspartate supplemented samples 90% of cells were PDX1+/NKX6.1-(FIG. 6B).

PDX1+/NKX6.1+ cells = assay: Flow cytometry for NKX6.1 and PDX1 at S4C after amino acid supplementation in S1; type: cell-based; conditions: supplementation in S1 to final 200 μM aspartate, 300 μM glycine, 585 μM serine
Protocol: as §1
At S4C, samples of the cells that were supplemented with different amino acids during the S1C step were collected and stained with NKX6.1 and PDX1 and analyzed using flow cytometry.

[1] = test system: ISL1+/NKX6.1+ (β-like) cells and ISL1+/NKX6.1− (α-like) cells; assay: Flow cytometry for NKX6.1 and ISL1 at S5C after amino acid supplementation in S1; type: cell-based; conditions: supplementation in Stage 1; for amount of SC-β-cells / SC-β-cell composition versus control: Stage 5 (S5C)
Protocol: as §1
(§2) At S5C, samples of the cells that were supplemented with different amino acids during S1C were collected and stained with NKX6.1 and ISL1 and analyzed using flow cytometry. […] To determine how amino acid supplementation affected yield, cell viability assays were performed.
(§3) In the next set of experiments, different combinations of amino acids were tested for their effects on yield and β-cell composition. […] The control group only received treatment with Protocol 2. […] The amino acid supplemented S1 base media were utilized for each S1 feed in a Protocol 2 differentiation at 0.3 L scale, alongside a control. At S5C, samples of cells were collected, stained with NKX6.1 and ISL1 and analyzed by flow cytometry. […] To determine how amino acid supplementation affected yield, cell viability assays were performed.

viable cell density = assay: Cell viability assays / yield of Protocol 2 differentiation with amino acid supplementation in S1; type: cell-based
Protocol: as §2, §3

EZH2 = EZH2 (Homo sapiens, UniProt Q15910); conditions: cited from earlier work
EZH2, sequence (Q15910 whole entry, species assumed): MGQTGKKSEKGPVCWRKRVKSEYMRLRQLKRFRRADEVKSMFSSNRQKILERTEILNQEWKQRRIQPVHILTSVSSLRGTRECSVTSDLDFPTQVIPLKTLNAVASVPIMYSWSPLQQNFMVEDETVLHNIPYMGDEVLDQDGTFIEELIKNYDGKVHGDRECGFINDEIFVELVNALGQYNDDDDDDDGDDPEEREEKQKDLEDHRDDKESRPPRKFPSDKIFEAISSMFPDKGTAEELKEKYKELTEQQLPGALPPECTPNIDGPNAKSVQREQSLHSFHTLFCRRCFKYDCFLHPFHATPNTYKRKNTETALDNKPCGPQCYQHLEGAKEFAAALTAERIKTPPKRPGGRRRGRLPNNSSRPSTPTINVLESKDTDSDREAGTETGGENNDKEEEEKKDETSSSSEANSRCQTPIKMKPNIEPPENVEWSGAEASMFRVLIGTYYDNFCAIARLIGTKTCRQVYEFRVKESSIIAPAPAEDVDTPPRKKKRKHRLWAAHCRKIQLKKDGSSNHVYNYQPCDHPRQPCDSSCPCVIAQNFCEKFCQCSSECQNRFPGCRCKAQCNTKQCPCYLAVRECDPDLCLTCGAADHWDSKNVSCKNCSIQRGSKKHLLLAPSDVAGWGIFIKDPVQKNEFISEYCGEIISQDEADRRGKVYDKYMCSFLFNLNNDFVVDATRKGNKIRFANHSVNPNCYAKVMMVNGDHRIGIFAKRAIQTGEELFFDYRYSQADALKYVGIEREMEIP
EZH2, sequence (O75530 whole entry partner, species assumed): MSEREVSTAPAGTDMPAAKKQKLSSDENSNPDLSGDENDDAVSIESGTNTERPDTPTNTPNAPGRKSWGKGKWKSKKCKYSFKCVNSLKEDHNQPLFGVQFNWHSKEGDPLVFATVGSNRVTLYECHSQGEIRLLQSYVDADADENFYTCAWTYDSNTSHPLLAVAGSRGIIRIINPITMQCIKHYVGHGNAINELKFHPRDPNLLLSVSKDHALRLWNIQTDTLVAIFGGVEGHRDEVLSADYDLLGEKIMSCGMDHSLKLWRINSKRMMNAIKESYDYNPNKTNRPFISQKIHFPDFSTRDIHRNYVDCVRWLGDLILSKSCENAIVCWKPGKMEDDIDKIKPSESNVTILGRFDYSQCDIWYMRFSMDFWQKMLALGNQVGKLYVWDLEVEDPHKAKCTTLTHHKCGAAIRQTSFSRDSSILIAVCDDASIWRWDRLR
EZH2, sequence (Q15022 whole entry partner, species assumed): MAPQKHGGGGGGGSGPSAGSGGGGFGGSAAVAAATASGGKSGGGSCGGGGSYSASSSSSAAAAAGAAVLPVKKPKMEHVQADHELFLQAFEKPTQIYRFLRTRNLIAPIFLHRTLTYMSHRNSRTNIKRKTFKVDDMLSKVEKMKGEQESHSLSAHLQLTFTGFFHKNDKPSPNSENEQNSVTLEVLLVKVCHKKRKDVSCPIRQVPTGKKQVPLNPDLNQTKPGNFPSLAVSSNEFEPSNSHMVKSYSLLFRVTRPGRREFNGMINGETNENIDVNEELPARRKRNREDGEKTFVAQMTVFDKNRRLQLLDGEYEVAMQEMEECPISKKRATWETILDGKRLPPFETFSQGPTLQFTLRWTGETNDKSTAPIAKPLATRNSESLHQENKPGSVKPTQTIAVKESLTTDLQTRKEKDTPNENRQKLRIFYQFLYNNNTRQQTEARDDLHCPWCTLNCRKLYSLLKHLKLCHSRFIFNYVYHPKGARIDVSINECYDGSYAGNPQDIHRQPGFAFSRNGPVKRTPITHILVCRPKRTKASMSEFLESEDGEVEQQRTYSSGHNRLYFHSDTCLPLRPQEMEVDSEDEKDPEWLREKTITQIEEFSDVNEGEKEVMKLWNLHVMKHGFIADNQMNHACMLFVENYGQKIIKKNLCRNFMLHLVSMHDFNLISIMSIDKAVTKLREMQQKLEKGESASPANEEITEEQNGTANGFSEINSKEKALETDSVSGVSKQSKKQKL

| Compound | % of Sox17+/Oct3/4− cells (Sox17+/Oct4− cells) | % of PDX1+/NKX6.1− cells (PDX1+/NKX6.1− cells) | % of PDX1+/NKX6.1+ cells (PDX1+/NKX6.1+ cells) | amount of SC-β-cells / SC-β-cell composition versus control [1] | yield (viable cells at harvest) relative to the control (viable cell density) | α-like cell development ([1]; S5C) | selectivity over EZH1 (EZH2; EZH2 versus EZH1) | selectivity compared with GSK126 (EZH2) |
| --- | --- | --- | --- | --- | --- | --- | --- | --- |
| glycine [Protocol 2 + Glycine] | 81.1% | 89.1% | 77.2% | increased | decreased yield |  |  |  |
| N[C@@H](CO)C(=O)O [Protocol 2 + Serine, serine] | 72.9% | 89.1% | 72.1% |  | decreased yield | promoted α-like cell development |  |  |
| CC[C@H](C)n1cc(C)c2c(C(=O)NCc3c(C)cc(C)[nH]c3=O)cc(-c3ccc(N4CCNCC4)nc3)cc21 [GSK126] |  |  |  |  |  |  | 150 fold |  |
| aspartate [Protocol 2 + Aspartate] | 75.6% | 90% | 77.8% | increased |  |  |  |  |
| CCCc1cc(C)[nH]c(=O)c1CNC(=O)c1cc(-c2ccc(N3CCN(C(C)C)CC3)nc2)cc2c1cnn2C(C)C [UNC1999] |  |  |  |  |  |  |  | less selective |
